Earlier results in patent US20140073699A1, “Combination Therapies for the Treatment of Obesity” (Metabolous Pharmaceuticals, Inc., priority 2009, published 2014).

Conditions: literature studies

| SMILES | weight loss of body weight for drug compared with placebo |
| --- | --- |
| CC(C)CC(N(C)C)C1(c2ccc(Cl)cc2)CCC1 (stereo not drawn) [sibutramine] | about 5% |
| CCN[C@@H](C)Cc1cccc(C(F)(F)F)c1 [dexfenfluramine] | about 5% |
| CCCCCCCCCCC[C@@H](C[C@@H]1OC(=O)[C@H]1CCCCCC)OC(=O)[C@H](CC(C)C)NC=O [orlistat] | about 5% |
